According to article PMC9225712, “Rational design of biodegradable sulphonamide candidates treating septicaemia by synergistic dual inhibition of COX-2/PGE2 axis and DHPS enzyme” (Journal of Enzyme Inhibition and Medicinal Chemistry, 2022):

How the values were obtained:
[1] = biological target: T1, ovine COX-1 (Ovis aries, UniProt P05979); assay: In vitro COX-1 enzymatic assay (Cayman kit 560131); format: biochemical; conditions: Mean ± SEM of triplicate determinations
T1 construct: purchased Cayman Chemicals Inc. 560131
T1 sequence (P05979 25-600): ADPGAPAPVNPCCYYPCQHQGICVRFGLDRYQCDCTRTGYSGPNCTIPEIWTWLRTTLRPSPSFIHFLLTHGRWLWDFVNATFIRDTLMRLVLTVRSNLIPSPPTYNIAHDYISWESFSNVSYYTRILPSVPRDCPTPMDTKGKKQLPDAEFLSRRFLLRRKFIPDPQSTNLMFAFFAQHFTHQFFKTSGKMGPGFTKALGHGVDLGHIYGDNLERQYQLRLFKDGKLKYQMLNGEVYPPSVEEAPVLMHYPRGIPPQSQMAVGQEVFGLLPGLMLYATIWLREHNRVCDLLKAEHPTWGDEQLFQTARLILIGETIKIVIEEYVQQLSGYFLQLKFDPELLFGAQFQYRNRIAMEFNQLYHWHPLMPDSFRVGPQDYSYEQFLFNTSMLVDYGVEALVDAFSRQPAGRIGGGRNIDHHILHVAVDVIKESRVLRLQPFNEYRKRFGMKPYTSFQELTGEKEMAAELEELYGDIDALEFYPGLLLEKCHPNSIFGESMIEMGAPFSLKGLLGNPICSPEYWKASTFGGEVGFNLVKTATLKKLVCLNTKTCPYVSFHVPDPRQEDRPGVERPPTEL

[2] = system: Salmonella typhi (RCMB 0100104); assay: Inhibition zone, agar cup diffusion; format: cell-based; conditions: Salmonella enterica, 24 h, read-out: inhibition zones (IZ) S. typhi
[3] = system: Shigella dysenteriae (RCMB 0100542); assay: Inhibition zone, agar cup diffusion; format: cell-based; conditions: RCMB0100542, 24 h, read-out: inhibition zones (IZ) S. dysenteriae
[4] = system: Staphylococcus aureus (RCMB 0100183); assay: Inhibition zone, agar cup diffusion; conditions: RCMB0100183, 24 h, read-out: inhibition zones (IZ) S. aureus
[5] = system: Staphylococcus epidermidis (RCMB 0100183); assay: Inhibition zone, agar cup diffusion; conditions: RCMB0100183, 24 h, read-out: inhibition zones (IZ) S. epidermidis
[6] = system: Streptococcus mutans (RCMB 0100172); assay: Inhibition zone, agar cup diffusion; conditions: RCMB0100172, 24 h, read-out: inhibition zones (IZ) S. mutans
[7] = system: Bacillus subtilis (RCMB 0100162); assay: Inhibition zone, agar cup diffusion; conditions: RCMB0100162, 24 h, read-out: inhibition zones (IZ) B. subtillis
[8] = system: Pseudomonas aeruginosa (RCMB 0100243); assay: Inhibition zone, agar cup diffusion; conditions: RCMB0100243, 24 h, read-out: inhibition zones (IZ) P.aeruginosa
[9] = system: Escherichia coli (RCMB 010052); assay: Inhibition zone, agar cup diffusion; conditions: RCMB010052, 24 h, read-out: inhibition zones (IZ) E.coli
[10] = system: Proteus vulgaris (RCMB 010085); assay: Inhibition zone, agar cup diffusion; conditions: RCMB010085, 24 h, read-out: inhibition zones (IZ) P. vulgaris
[11] = biological target: T2, human recombinant COX-2 (Homo sapiens, UniProt P35354); assay: In vitro COX-2 enzymatic assay (Cayman kit 560131); conditions: for SI COX-1/COX-2: COX-2 selectivity index: COX-1 IC50/COX-2 IC50
T2 sequence (P35354 18-604): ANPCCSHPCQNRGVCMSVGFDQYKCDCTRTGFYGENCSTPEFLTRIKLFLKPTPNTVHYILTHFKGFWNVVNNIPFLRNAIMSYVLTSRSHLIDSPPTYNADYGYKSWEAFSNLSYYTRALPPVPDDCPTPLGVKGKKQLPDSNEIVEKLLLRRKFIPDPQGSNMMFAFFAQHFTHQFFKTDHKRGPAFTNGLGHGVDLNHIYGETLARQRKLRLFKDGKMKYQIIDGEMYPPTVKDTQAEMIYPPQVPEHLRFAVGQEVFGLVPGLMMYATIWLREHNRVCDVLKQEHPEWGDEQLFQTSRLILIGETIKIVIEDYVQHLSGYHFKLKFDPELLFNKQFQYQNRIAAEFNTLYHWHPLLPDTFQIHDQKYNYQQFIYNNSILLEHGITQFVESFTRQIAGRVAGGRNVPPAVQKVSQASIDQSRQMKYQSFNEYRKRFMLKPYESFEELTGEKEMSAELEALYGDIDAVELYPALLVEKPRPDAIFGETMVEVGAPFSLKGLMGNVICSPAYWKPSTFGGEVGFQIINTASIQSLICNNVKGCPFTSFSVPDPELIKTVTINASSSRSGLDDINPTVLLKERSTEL

Structure (SMILES)	IC50 [1] [µM]	zone of inhibition at 1000 µg/mL [2] [mm]	zone of inhibition at 1000 µg/mL [3] [mm]	zone of inhibition at 1000 µg/mL [4] [mm]	zone of inhibition at 1000 µg/mL [5] [mm]	zone of inhibition at 1000 µg/mL [6] [mm]	zone of inhibition at 1000 µg/mL [7] [mm]	zone of inhibition at 1000 µg/mL [8] [mm]	zone of inhibition at 1000 µg/mL [9] [mm]	zone of inhibition at 1000 µg/mL [10] [mm]	IC50 [11] [µM]	SI COX-1/COX-2 [11]
NS(=O)(=O)c1ccc(/N=N/c2ccc(O)c(C(=O)N3CCOCC3)c2)cc1 [Compound 5l, 4-((4-Hydroxy-3-(morpholine-4-carbonyl)phenyl)diazenyl) benzenesulfonamide]	10.2 ± 0.08	17	26	18	32	26	20	14	14	19	0.08 ± 0.001	134.2
O=C(NCc1ccccc1)c1cc(/N=N/c2ccc(S(=O)(=O)Nc3ncccn3)cc2)ccc1O [Compound 5g, N-Benzyl-2-hydroxy-5-((4-(N-(pyrimidin-2-yl)sulfamoyl)phenyl)diazenyl) benzamide]	10.5 ± 0.08	13	26	26	32	30	20	14	16	17	0.1 ± 0.0003	109.4
CC1(C)S[C@@H]2[C@H](NC(=O)[C@H](N)c3ccccc3)C(=O)N2[C@H]1C(=O)O [Ampicillin, reference compound]	–	–	–	30	32	30	15	–	–	–	–	–
NS(=O)(=O)c1ccc(/N=N/c2ccc(O)c(C(=O)NCc3ccccc3)c2)cc1 [Compound 5e, N-Benzyl-2-hydroxy-5-((4-sulfamoylphenyl)diazenyl) benzamide]	8.3 ± 0.06	16	25	32	35	30	16	18	16	21	0.12 ± 0.003	69.2
C[C@H]1COc2c(N3CCN(C)CC3)c(F)cc3c(=O)c(C(=O)O)cn1c23 [Levofloxacin, levofloxacin, reference compound]	–	11	20	–	–	–	–	8	11	15	–	–
O=C(NCc1ccccc1)c1cc(/N=N/c2ccc(S(=O)(=O)Nc3nccs3)cc2)ccc1O [Compound 5f, N-Benzyl-2-hydroxy-5-((4-(N-(thiazol-2-yl)sulfamoyl)phenyl)diazenyl) benzamide]	9.7 ± 0.06	16	25	24	36	27	17	16	16	17	0.11 ± 0.003	88.2
CCCCNC(=O)c1cc(/N=N/c2ccc(S(=O)(=O)Nc3ncccn3)cc2)ccc1O [Compound 5c, N-Butyl-2-hydroxy-5-((4-(N-(pyrimidin-2-yl)sulfamoyl)phenyl)diazenyl) benzamide]	11.2 ± 0.08	13	25	29	30	31	19	16	16	17	0.08 ± 0.0003	145.5
CCCCNC(=O)c1cc(/N=N/c2ccc(S(=O)(=O)Nc3nccc(C)n3)cc2)ccc1O [Compound 5d, N-Butyl-2-hydroxy-5-((4-(N-(4-methylpyrimidin-2yl)sulfamoyl)phenyl)diazenyl) benzamide]	10.6 ± 0.08	16	26	28	32	28	20	18	16	19	0.09 ± 0.001	116.5
NS(=O)(=O)c1ccc(/N=N/c2ccc(O)c(C(=O)N3CCCCC3)c2)cc1 [Compound 5h, 4-((4-Hydroxy-3-(piperidine-1-carbonyl)phenyl)diazenyl) benzenesulfonamide]	8.2 ± 0.12	18	24	22	29	29	20	16	14	19	0.14	58.6
CCCCNC(=O)c1cc(/N=N/c2ccc(S(N)(=O)=O)cc2)ccc1O [Compound 5a, N-Butyl-2-hydroxy-5-((4-sulfamoylphenyl)diazenyl) benzamide]	9.6 ± 0.06	15	25	26	33	29	17	14	14	18	0.11 ± 0.0003	87.3
